Results from patent publication US20040097376A1, “Substituted aryl ketones and their use as herbicides” (priority 2000, published 2004).

Tests used:
weeds [1] = assay: Pre-emergence test (Example A), effect on weeds; type: in vivo; conditions: soil sprayed 24 hours after sowing, assessed after three weeks
Procedure: To produce an expedient preparation of active substance, 1 part by weight of active substance is mixed with the stated amount of solvent, the stated amount of emulsifier is added and the concentrate is diluted with water to the required concentration.
Seeds of the test plants are sown in normal soil. After 24 hours, the soil is sprayed with the active substance preparation in such a way that the respective desired application rate of active substance per unit area is achieved. The active substance concentration in the spray liquor is selected so that the respective required application rate of active substance is achieved with 1000 litres of water per hectare.
After three weeks, the degree of damage to the plants is assessed in % damage by comparison with the development of the untreated control.

weeds [2] = assay: Post-emergence test (Example B), effect on weeds; type: in vivo; conditions: test plants 5-15 cm high sprayed, assessed after three weeks
Procedure: To produce an expedient preparation of active substance, 1 part by weight of active substance is mixed with the stated amount of solvent, the stated amount of emulsifier is added, and the concentrate is diluted with water to the required concentration.
The active substance preparation is used to spray test plants which are 5-15 cm high in such a way that the respective desired application rate of active substance per unit area is achieved. The concentration of the spray liquor is chosen so that the respective required application rates of active substance are achieved in 1000 l of water/ha.
After three weeks, the degree of damage to the plants is assessed in % damage by comparison with the development of the untreated control. The meanings are:
0%=no effect (as untreated control)

[3] = logP determination by HPLC on reversed phase column (C 18), EEC Directive 79/831 Annex V.A8; type: physicochemical; conditions: reversed phase C18 HPLC column; pH=2.3
Procedure: Determination of the logP values indicated in Table 1 took place in accordance with EEC Directive 79/831 Annex V.A8 by HPLC (high performance liquid chromatography) on a reversed phase column (C 18). Temperature: 43° C. (a) Eluent for determination in the acidic range: 0.1% aqueous phosphoric acid, acetonitrile; linear gradient from 10% acetonitrile to 90% acetonitrile—corresponding measured results are marked with ^a) in Table 1. Calibration took place with unbranched alkan-2-ones (having 3 to 16 carbon atoms) whose logP values are known (determination of the logP values on the basis of the retention times by linear interpolation between two consecutive alkanones).

chromatographic logP [3]	Structure (SMILES)	effect on weeds (degree of damage vs untreated control) (weeds [1])	effect on weeds (degree of damage vs untreated control) (weeds [2])
	N#C/N=C1\SCCN1Cc1c(Cl)ccc(C(=O)C2C(=O)CCCC2=O)c1Cl [Example 1, 3-[2,6-dichloro-3-[(2,6-dioxocyclohexyl)carbonyl]benzyl]-1,3-thiazolidin-2-ylidenecyanamide]	strong effect on weeds	strong effect on weeds
2.54	N#C/N=C1\SCCN1Cc1cc(C(F)(F)F)ccc1C(=O)C1C(=O)CCCC1=O [Example 2, 3-[2-[(2,6-dioxocyclohexyl)carbonyl]-5-trifluoromethyl-benzyl]-1,3-thiazolidin-2-ylidenecyanamide]	strong effect on weeds	
2.01	N#C/N=C1\SCCN1Cc1cc(C(F)(F)F)ccc1C(=O)O [Example (II-2), 2-[(2-cyanoimino-1,3-thiazolidin-3-yl)methyl]-4-trifluoro-methylbenzoic acid]		
2.53	COC(=O)c1ccc(C(F)(F)F)cc1CN1CCS/C1=N\C#N [Example (IIa-2), methyl 2-[(2-cyanoimino-1,3-thiazolidin-3-yl)methyl]-4-trifluoromethylbenzoate]		
